According to patent publication US20230364175A1 (priority 2022, published 2023):
Values after ≈ are worked out from the molar mass of the structure shown. Read-outs that look alike come from different tables or passages of the source.

Experiments:
[1] = physchem; format: physicochemical
Source text: (§1) In some embodiments, the one or more organic compounds includes cyclodextrin or a cyclodextrin derivative. In some embodiments, the one or more organic compounds includes hydroxypropyl-beta-cyclodextrin (HPBCD). In some embodiments, HPBCD is provided in a concentration ranging from about 0.49 to about 0.55 wt. %, including, for example, 0.50%, 0.51%, 0.52%, 0.53%, and 0.54%. […] The low solubility of melatonin can lead to limited absorption and bioavailability. With the addition of HPBCD, the solubility of melatonin is improved to about 10 mg/mL. In an aqueous solution in which HPBCD is present at a concentration ranging from about 0.49 to about 0.55 wt. %, HPBCD monomers have a hydrodynamic size of 10 nm and aggregates of HPBCD form up to 100 nm in diameter (measured via dynamic light scattering).

[2] = log P of melatonin; format: physicochemical
Source text: as §1

In the case of `COc1ccc2[nH]cc(CCNC(C)=O)c2c1` [melatonin], the solubility [1] was roughly 100 µg/mL (≈ 0.431 mM), the solubility ([1]; aqueous with cosolvent or surfactant or cyclodextrin) was roughly 10000 µg/mL (≈ 43.1 mM) and the logP [2] was 1.6.
